Laboratory results published in patent publication US8518980B2, “Treatment of Duchenne muscular dystrophy” (Summit Corporation PLC, priority 2006, dated 2013).

Tested on: Utrophin A promoter linked to a luciferase reporter gene (H2K/mdx/Utro A reporter cell line)
Experiment: Luciferase reporter assay (murine H2K cells)
Conditions: Mus musculus, H2K mdx

Compound	activity at 10 µM [%]
Cn1c(NC(=N)c2ccccc2)nc2ccccc21 [Example 669, N-(1-methyl-1H-benzo[d]imidazol-2-yl)benzimidamide]	201 to 300
Nc1c(C(=O)Nc2ccccc2F)sc2nc3c(cc12)CCC3 [Example 673, 3-amino-N-(2-fluorophenyl)-6,7-dihydro-5H-cyclopenta[e]thieno[2,3-b]pyridine-2-carboxamide]	201 to 300
CC(=O)Oc1ccc(C(=O)Nc2ccc(-c3nc4ccccc4[nH]3)cc2)cc1 [Example 655, 4-(4-(1H-benzo[d]imidazol-2-yl)phenylcarbamoyl)phenyl acetate]	301 to 400
COc1ccc(-c2nc3cc([N+](=O)[O-])ccc3[nH]2)cc1OC [Example 520, 2-(3,4-dimethoxyphenyl)-5-nitro-1H-benzo[d]imidazole]	< 200
Cc1ccnc(Nc2nc3ccccc3o2)n1 [Example 682, N-(4-methylpyrimidin-2-yl)benzo[d]oxazol-2-amine]	201 to 300
Cc1ccc(C)c(OCc2nc3ccccc3[nH]2)c1 [Example 548, 2-((2,5-dimethylphenoxy)methyl)-1H-benzo[d]imidazole]	< 200
COc1ccc2oc(-c3ccc(C)c(N)c3)nc2c1 [Example 686, 5-(5-methoxybenzo[d]oxazol-2-yl)-2-methylaniline]	201 to 300
CCC(C)C(=O)Nc1ccc(-c2nc3ccccc3[nH]2)cc1 (stereo not shown) [Example 631, N-(4-(1H-benzo[d]imidazol-2-yl)phenyl)-2-methylbutanamide]	> 401
CC(=O)Nc1cccc(-c2nc3ccccc3[nH]2)c1 [Example 503, N-(3-(1H-benzo[d]imidazol-2-yl)phenyl)acetamide]	< 200
CCOc1ccc2nc(NC(=O)c3ccccc3)sc2c1 [Example 555, N-(6-ethoxybenzo[d]thiazol-2-yl)benzamide]	< 200
Cc1cc(C)cc(-c2nc3cc(N)ccc3o2)c1 [Example 482, 2-(3,5-dimethylphenyl)benzo[d]oxazol-5-amine]	< 200
Cc1ccc2nc(-c3cccc(NC(=O)c4ccco4)c3)[nH]c2c1 [Example 538, N-(3-(6-methyl-1H-benzo[d]imidazol-2-yl)phenyl)furan-2-carboxamide]	< 200
COc1ccc(-c2nc3ccccc3s2)cc1 [Example 582, 2-(4-Methoxyphenyl)benzo[d]thiazole]	> 401
CCn1c(C)nc2cc(C(=O)Nc3ccccc3)ccc21 [Example 615, 1-ethyl-2-methyl-N-phenyl-1H-benzo[d]imidazole-5-carboxamide]	> 401
Cc1nc2ccc(NC(=O)Nc3ccccc3)cc2o1 [Example 466, 1-(2-methylbenzo[d]oxazol-6-yl)-3-phenylurea]	< 200
c1ccc(-c2nnc(SCc3nc4ccccc4[nH]3)o2)cc1 [Example 530, 2-((1H-benzo[d]imidazol-2-yl)methylthio)-5-phenyl-1,3,4-oxadiazole]	< 200
Cc1ccc2sc(-c3ccc(NC(=O)c4cc(-n5cnnc5)ccc4Cl)cc3)nc2c1 [Example 688, 2-chloro-N-(4-(5-methylbenzo[d]thiazol-2-yl)phenyl)-5-(4H-1,2,4-triazol-4-yl)benzamide]	201 to 300
CCNC(=O)Nc1ccc2[nH]c(C(C)(C)C)cc2c1 [Example 576, 1-(2-tert-butyl-1H-indol-5-yl)-3-ethylurea]	< 200
Cc1ccc(C(=O)Nc2nc3ccccc3s2)c(Cl)c1 [Example 567, N-(benzo[d]thiazol-2-yl)-2-chloro-4-methylbenzamide]	< 200
O=C(Nc1ccc2c(c1)OCO2)c1sc2ccccc2c1Cl [Example 618, N-(benzo[d][1,3]dioxol-5-yl)-3-chlorobenzo[b]thiophene-2-carboxamide]	> 401
Nc1ccc(-c2nc3ccccc3s2)cc1 [Example 601, 4-(Benzo[d]thiazol-2-yl)aniline]	301 to 400
CC(=O)Nc1ccc(-c2nc3ccccc3o2)cc1 [Example 589, N-(4-(Benzo[d]oxazol-2-yl)phenyl)acetamide]	301 to 400
OCc1cn(-c2ccccc2)nc1-c1cc2ccccc2o1 [Example 674, (3-(benzofuran-2-yl)-1-phenyl-1H-pyrazol-4-yl)methanol]	201 to 300
Cc1cc(-c2nc3cc(N)ccc3o2)ccc1Br [Example 649, 2-(4-bromo-3-methylphenyl)benzo[d]oxazol-5-amine]	301 to 400
COc1ccc(-c2nc3cc(C)ccc3o2)cc1 [Example 675, 2-(4-methoxyphenyl)-5-methylbenzo[d]oxazole]	201 to 300
O=C(Nc1ccccc1F)C(=O)c1c[nH]c2ccccc12 [Example 689, N-(2-fluorophenyl)-2-(1H-indol-3-yl)-2-oxoacetamide]	201 to 300
Cc1ccc(-c2nc3cc(N)ccc3o2)cc1C [Example 603, 2-(3,4-Dimethylphenyl)benzo[d]oxazol-5-amine]	301 to 400
Nc1ccc(-c2nc3ccc(N)cc3o2)cc1 [Example 544, 2-(4-aminophenyl)benzo[d]oxazol-6-amine]	201 to 300

Compound	activity at 10 µM [%]
Cc1ccc2nc(-c3ccc(NC(=O)c4cccs4)cc3)oc2c1 [Example 672, N-(4-(6-methylbenzo[d]oxazol-2-yl)phenyl)thiophene-2-carboxamide]	201 to 300
O=C(Nc1ccccc1F)c1sc2ccccc2c1Cl [Example 621, 3-chloro-N-(2-fluorophenyl)benzo[b]thiophene-2-carboxamide]	> 401
Clc1ccc(SCc2ccc(-c3nc4ccccc4[nH]3)cc2)cc1 [Example 460, 2-(4-((4-chlorophenylthio)methyl)phenyl)-1H-benzo[d]imidazole]	< 200
CC(C)c1ccc2oc(-c3ccc(N)cc3O)nc2c1 [Example 565, 5-amino-2-(5-isopropylbenzo[d]oxazol-2-yl)phenol]	301 to 400
Nc1ccc2oc(-c3ccc(O)cc3)nc2c1 [Example 496, 4-(5-aminobenzo[d]oxazol-2-yl)phenol]	201 to 300
Cc1cc2nc(-c3cc(N)ccc3Cl)oc2cc1C [Example 646, 4-chloro-3-(5,6-dimethylbenzo[d]oxazol-2-yl)aniline]	301 to 400
Clc1ccc(OCc2nc3ccccc3[nH]2)cc1 [Example 495, 2-((4-chlorophenoxy)methyl)-1H-benzo[d]imidazole]	< 200
COc1ccc(C(=O)Nc2ccc(-c3nc4ccccc4[nH]3)cc2)cc1OC [Example 494, N-(4-(1H-benzo[d]imidazol-2-yl)phenyl)-3,4-dimethoxybenzamide]	< 200
CN(C)c1ccc(-c2nc3cc([N+](=O)[O-])ccc3[nH]2)cc1 [Example 509, N,N-dimethyl-4-(5-nitro-1H-benzo[d]imidazol-2-yl)aniline]	201 to 300
CCC(=O)Nc1ccc2oc(-c3cccc(C)c3)nc2c1 [Example 668, N-(2-m-tolylbenzo[d]oxazol-5-yl)propionamide]	201 to 300
c1cc(NCc2ccncc2)cc(-c2nc3ccccc3s2)c1 [Example 647, 3-(benzo[d]thiazol-2-yl)-N-(pyridin-4-ylmethyl)aniline]	301 to 400
Cc1ccc2nc(-c3ccc(NC(=O)c4cccnc4)cc3)sc2c1 [Example 638, N-(4-(6-methylbenzo[d]thiazol-2-yl)phenyl)nicotinamide]	301 to 400
Cc1ccc2[nH]c(-c3sc4nc(C)ccc4c3N)nc2c1 [Example 632, 6-methyl-2-(5-methyl-1H-benzo[d]imidazol-2-yl)thieno[2,3-b]pyridin-3-amine]	> 401
Cc1nc2ccc(NC(=O)NC(=O)c3ccccc3Cl)cc2o1 [Example 468, 2-chloro-N-(2-methylbenzo[d]oxazol-6-ylcarbamoyl)benzamide]	< 200
COc1ccc(-c2nc3ccccc3o2)cc1 [Example 583, 2-(4-Methoxyphenyl)benzo[d]oxazole]	301 to 400
O=[N+]([O-])c1ccc(-c2nc3ccccc3o2)cc1 [Example 477, 2-(4-nitrophenyl)benzo[d]oxazole]	< 200
Cc1cc(C)c2oc(-c3ccc(Cl)c(N)c3)nc2c1 [Example 627, 2-chloro-5-(5,7-dimethylbenzo[d]oxazol-2-yl)aniline]	> 401
O=C(Nc1cccc(-c2nc3ccccc3[nH]2)c1)c1ccccc1 [Example 464, N-(3-(1H-benzo[d]imidazol-2-yl)phenyl)benzamide]	< 200
COc1ccc(-c2nc3cc(NC(C)=O)ccc3o2)cc1Cl [Example 519, N-(2-(3-chloro-4-methoxyphenyl)benzo[d]oxazol-5-yl)acetamide]	201 to 300
Cc1ccc2nc(-c3ccc(NC(=O)CSc4nnc[nH]4)cc3)sc2c1 [Example 654, 2-(4H-1,2,4-triazol-3-ylthio)-N-(4-(6-methylbenzo[d]thiazol-2-yl)phenyl)acetamide]	301 to 400
O=C(CSc1nc2ccccc2s1)N1CCCCC1 [Example 617, 2-(benzo[d]thiazol-2-ylthio)-1-(piperidin-1-yl)ethanone]	> 401
COc1ccc(-c2nc3ccccc3n2C)cc1OC [Example 521, 2-(3,4-dimethoxyphenyl)-1-methyl-1H-benzo[d]imidazole]	< 200
Oc1cccc(-c2nc3ccccc3s2)c1 [Example 594, 3-(Benzo[d]thiazol-2-yl)phenol]	> 401
Cc1cc2nc(-c3cc(N)ccc3O)oc2cc1C [Example 559, 4-amino-2-(5,6-dimethylbenzo[d]oxazol-2-yl)phenol]	301 to 400
COc1ccc2oc(-c3cccc(N)c3)nc2c1 [Example 630, 3-(5-methoxybenzo[d]oxazol-2-yl)aniline]	> 401
Clc1ccc(-c2nc3cc(CN4CCCCC4)ccc3o2)cc1 [Example 469, 2-(4-chlorophenyl)-5-(piperidin-1-ylmethyl)benzo[d]oxazole]	< 200
Cn1c(COc2ccccc2)nc2ccccc21 [Example 474, 1-methyl-2-(phenoxymethyl)-1H-benzo[d]imidazole]	< 200
